Source: article PMC9909315, “SY-707, an ALK/FAK/IGF1R inhibitor, suppresses growth and metastasis of breast cancer cells” (Acta Biochimica et Biophysica Sinica, 2022)

Key:
ALK = ALK (Homo sapiens, UniProt Q9UM73); assay: Enzymatic kinetic analysis at various ATP concentrations; assay type: biochemical
Protocol: (§1) SY-707 ( Figure 1A) was originally developed as an ALK inhibitor. […] To evaluate the in vitro enzymatic potency and selectivity of SY-707, a kinase panel screening on 96 kinases was performed to determine the inhibitory activities of SY-707 at a concentration of 1 mM. […] Then, enzymatic kinetic analysis of ALK and FAK was performed to explore the mechanisms of inhibition effect of SY-707. Activities of ALK or FAK were estimated at various concentrations of ATP in the presence or absence of SY-707.
(§2) (C) ALK enzyme activities were evaluated at various concentrations of ATP (0–50 μM) in the presence of different concentrations of SY-707. (D) FAK enzyme activities were evaluated at various concentrations of ATP (0–333 μM) in the presence of different concentrations of SY-707.

FAK = FAK (Homo sapiens, UniProt Q05397); assay: as above; assay type: biochemical
Protocol: as §1, §2

MCF-7 cells [1] = assay: PE Annexin V/7-AAD apoptosis flow cytometry; assay type: cell-based; conditions: MCF-7, 0.01, 0.1 and 1 μM, 24 h
Protocol: MCF-7 cells were treated with 0.1% DMSO (control) or with SY-707 solution at indicated concentrations for 24 h at 37°C, then the cells were harvested by centrifugation at 350 g and washed twice with PBS. Cell apoptosis was determined using the PE Annexin V Apoptosis Detection kit (BD Biosciences, San Jose, USA) following the manufacture’s guides. Breifly, cells were resuspended with 100 μL of binding buffer containing Annexin V and 7-AAD. After 15 min of incubation at room temperature in the dark, 400 μL of binding buffer was added to the mixture and the cells were analyzed with a Guava flow cytometer (Millipore). Cell cycle arrest was evaluated by incorporation of propidium (PI; Sigma-Aldrich, St Louis, USA) into the permeablized cells. After being treated with DMSO or compounds for 24 h, cells were harvested, washed twice with cold PBS, fixed with ice-cold 70% ethanol, followed by a secondary staining step with staining buffer (0.25 mg/mL RNase, 0.025 mg/mL PI, in PBS) for 1 h at 37°C. Compound regulation of cell-cycle was analyzed using the Guava flow cytometer. Data were analyzed with FlowJo software.

MCF-7 cells [2] = assay: Would healing (migration) assay; assay type: cell-based; conditions: MCF-7, 24 h, vs control
Protocol: (§3) Totally, 5×10 ^5 cells were plated into each well of 6-well plates, and cultured to 70%–80% confluence, then the cell monolayer was gently and slowly scratched with a new 1-mL pipette tip across the center of the well. After scratching, the wells were gently washed with PBS twice to remove the detached cells, and replenished with fresh medium containing indicated concentration of compounds. The treated cells were allowed to grow for additional 24 h, and images were capturedunder a microscope. The migration distance were calculated and analyzed to evaluate the effects of compounds.

T47D cells = assay: Would healing (migration) assay; assay type: cell-based; conditions: 24 h, vs control
Protocol: as §3

[3] = test system: phosphorylation of Pyk2 at Tyr402; assay: Western blot of Pyk2 phosphorylation in T47D cells; assay type: cell-based; conditions: 1 h treatment
Protocol: Equal amounts of cell lysates were loaded onto 10% SDS-PAGE gel and separated by electrophoresis. Separated proteins were then electro-transferred onto polyvinylidene fluoride (PVDF) membranes (Millipore, Bedford, USA). After being blocked with Tris-buffered saline containing 0.1% Tween-20 (TBST) and 5% bovine serum albumin (BSA), the membranes were incubated with primary antibodies at room temperature for 2 hours or at 4°C, then washed with TBST, followed by treatment with horseradish peroxidase (HRP)-conjugated goat anti-rabbit IgG secondary antibody at room temperature for another 1 h. The targeted protein bands were visualized using an enhanced chemiluminescence (ECL) plus system (Thermo Fisher Scientific). […]
Figure4 Inhibitory effects of SY-707 on the phosphorylation of FAK(A,B) Concentration-dependent inhibition of SY-707 on phosphorylation of FAK in T47D (A) and MCF-7 (B) cells. […] Cell lysates were analyzed by western blot analysis using specific antibodies against p-FAK, p-Pyk2, p-AKT and p-ERK respectively. […] Cell lysates were analyzed by western blot analysis using specific antibodies against p-IGF1R, p-STAT3, p-AKT and p-ERK respectively.

[4] = test system: phosphorylation of FAK at Tyr397 in T47D tumor tissue; assay: Pharmacokinetics/pharmacodynamics study in T47D xenograft model; assay type: in vivo, nude mice
Protocol: Figure5 Anti-tumor activities of SY-707 in breast cancer xenograftsXenograft tumors were established by inoculating T47D (A, B, C) cells or 4T1 (D) cells into the nude mice. Oral administration of SY-707 alone or combined with paclitaxel was initiated when tumors reached an average of approximately 150–300 mm3 in volume and continued through the experiment. Tumor volume was measured on the indicated days with the mean tumor volume±SD indicated for each group (10 mice/group). Each treatment group was compared to vehicle group with t-test. *P<0.05, **P<0.01. (B) The tumor tissues were harvested at 2 h after the last dosage of SY-707, compound levels in tumor tissues or plasma and the phosphorylation levels of FAK were analyzed.
To explore the relationship between the in vivo anti-tumor growth activities and the inhibition on FAK signaling, pharmacokinetics/pharmacodynamics studies were performed in T47D xenograft model.

Chain of ALK (Q9UM73 19-1620): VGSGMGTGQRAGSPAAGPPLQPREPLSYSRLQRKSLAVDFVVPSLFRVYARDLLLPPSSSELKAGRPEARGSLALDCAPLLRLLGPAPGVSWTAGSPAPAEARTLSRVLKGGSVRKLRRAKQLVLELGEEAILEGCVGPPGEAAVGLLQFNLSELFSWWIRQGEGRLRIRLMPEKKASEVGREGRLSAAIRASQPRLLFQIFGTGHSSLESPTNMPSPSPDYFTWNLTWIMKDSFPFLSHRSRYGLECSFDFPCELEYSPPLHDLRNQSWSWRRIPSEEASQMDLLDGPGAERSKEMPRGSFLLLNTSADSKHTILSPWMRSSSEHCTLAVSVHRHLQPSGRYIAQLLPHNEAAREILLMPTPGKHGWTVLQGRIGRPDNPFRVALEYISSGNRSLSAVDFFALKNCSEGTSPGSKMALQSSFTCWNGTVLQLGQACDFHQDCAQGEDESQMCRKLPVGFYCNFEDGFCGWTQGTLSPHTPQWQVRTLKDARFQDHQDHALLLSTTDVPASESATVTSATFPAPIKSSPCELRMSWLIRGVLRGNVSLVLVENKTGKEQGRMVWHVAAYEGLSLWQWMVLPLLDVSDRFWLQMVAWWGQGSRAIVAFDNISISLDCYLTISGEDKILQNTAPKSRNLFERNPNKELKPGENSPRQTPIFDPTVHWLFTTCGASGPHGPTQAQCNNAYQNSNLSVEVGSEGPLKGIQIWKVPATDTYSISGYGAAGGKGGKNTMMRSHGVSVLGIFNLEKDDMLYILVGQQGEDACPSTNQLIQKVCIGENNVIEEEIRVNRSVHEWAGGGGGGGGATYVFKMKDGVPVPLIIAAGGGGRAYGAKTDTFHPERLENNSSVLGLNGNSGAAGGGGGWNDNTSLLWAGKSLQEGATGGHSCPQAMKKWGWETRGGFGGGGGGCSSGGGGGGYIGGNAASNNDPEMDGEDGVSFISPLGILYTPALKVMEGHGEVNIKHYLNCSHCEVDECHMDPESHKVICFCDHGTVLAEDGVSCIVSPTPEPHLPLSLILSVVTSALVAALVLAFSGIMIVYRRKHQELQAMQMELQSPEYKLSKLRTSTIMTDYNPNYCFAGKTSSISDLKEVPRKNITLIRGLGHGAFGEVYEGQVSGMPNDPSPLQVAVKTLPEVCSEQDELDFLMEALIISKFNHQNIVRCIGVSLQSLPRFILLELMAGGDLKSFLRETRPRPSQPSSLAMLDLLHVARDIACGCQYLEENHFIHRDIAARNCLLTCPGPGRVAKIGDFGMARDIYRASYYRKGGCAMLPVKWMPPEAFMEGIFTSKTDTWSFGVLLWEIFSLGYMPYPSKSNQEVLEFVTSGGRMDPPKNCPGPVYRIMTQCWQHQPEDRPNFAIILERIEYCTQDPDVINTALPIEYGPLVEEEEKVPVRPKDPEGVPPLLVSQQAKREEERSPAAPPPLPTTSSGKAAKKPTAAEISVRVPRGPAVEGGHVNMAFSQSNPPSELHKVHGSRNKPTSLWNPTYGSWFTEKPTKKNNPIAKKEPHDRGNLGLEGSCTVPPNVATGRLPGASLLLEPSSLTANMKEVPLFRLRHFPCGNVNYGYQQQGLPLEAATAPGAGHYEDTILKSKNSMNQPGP
Chain of FAK (Q05397 whole entry): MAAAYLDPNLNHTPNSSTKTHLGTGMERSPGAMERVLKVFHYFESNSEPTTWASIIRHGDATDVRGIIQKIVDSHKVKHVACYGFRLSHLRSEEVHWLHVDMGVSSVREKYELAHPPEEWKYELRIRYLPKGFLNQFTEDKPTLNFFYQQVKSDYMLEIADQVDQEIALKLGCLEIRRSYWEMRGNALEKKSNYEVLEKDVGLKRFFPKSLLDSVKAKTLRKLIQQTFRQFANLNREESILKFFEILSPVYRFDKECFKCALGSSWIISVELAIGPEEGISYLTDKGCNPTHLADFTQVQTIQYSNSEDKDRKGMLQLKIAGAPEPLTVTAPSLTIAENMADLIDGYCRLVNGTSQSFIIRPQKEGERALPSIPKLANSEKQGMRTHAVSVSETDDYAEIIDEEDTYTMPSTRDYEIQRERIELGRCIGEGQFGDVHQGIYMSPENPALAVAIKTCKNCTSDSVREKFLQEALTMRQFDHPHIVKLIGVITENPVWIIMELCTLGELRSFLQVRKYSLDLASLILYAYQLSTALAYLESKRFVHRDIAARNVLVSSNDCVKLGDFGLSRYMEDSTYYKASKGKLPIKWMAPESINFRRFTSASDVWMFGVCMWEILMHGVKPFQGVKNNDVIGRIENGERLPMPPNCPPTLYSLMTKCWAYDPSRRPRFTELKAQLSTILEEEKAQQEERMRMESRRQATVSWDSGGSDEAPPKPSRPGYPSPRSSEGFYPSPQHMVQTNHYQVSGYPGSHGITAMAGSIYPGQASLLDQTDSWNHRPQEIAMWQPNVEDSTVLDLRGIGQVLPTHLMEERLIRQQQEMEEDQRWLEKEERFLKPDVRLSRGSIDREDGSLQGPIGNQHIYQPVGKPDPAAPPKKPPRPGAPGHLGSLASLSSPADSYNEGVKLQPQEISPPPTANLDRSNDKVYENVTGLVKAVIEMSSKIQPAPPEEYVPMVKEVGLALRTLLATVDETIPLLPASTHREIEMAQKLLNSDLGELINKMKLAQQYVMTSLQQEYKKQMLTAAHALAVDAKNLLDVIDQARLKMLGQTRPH

COc1cc(N2CCC(N3CCN(C)CC3)CC2)ccc1Nc1nc2c(c(Nc3ccccc3S(=O)(=O)NC(C)C)n1)CCN2 [SY-707, N-isopropyl-2-((2-((2-methoxy-4-(4-(4-methylpiperazin-1-yl)piperidin-1-yl)phenyl)amino)-6,7-dihydro-5H-pyrrolo[2,3-d]pyrimidin-4-yl)amino)benzenesulfonamide]
mode of inhibition of ALK kinase (ALK; Lineweaver-Burk plots): ATP-competitive inhibitor | Ki', ALK enzyme-ATP complex (ALK; enzyme-ATP complex): 19.2 nM | Ki (ALK; free enzyme, read-out: dissociation constant (Ki), free ALK enzyme): 0.9 nM | mode of inhibition of FAK kinase (FAK; double-reciprocal plots): ATP-competitive inhibitory behavior | Ki', FAK enzyme-ATP complex (FAK; enzyme-ATP complex): 16.1 nM | Ki (FAK; free enzyme, read-out: dissociation constant (Ki), free FAK enzyme): 0.56 nM | Late apoptosis (MCF-7 cells [1]): dose-dependently induced | migration distance (MCF-7 cells [2]): significantly decreased | migration distance (T47D cells): significantly decreased | phosphorylation of Pyk2 at Tyr402 [3]: dose-dependently suppressed | concentration in tumor samples compared to plasma ([4]; 2 h after last dosage): higher concentrations of SY-707 were also detected in tumor samples | phosphorylation level of FAK at Tyr397 in tumor ([4]; tumor harvested 2 h after last dosage, vs control group): significantly decreased
